Patent US10524472B2, “Elicitor peptides having disrupted hypersensitive response box and use thereof” (Plant Health Care, Inc., priority 2014, dated 2020)
Marks after values point to notes of the source that are not given here.

Each substance was assayed on tobacco mosaic virus (TMV) (assay: Induction of resistance to tobacco mosaic virus in tobacco). Conditions: foliar spray.
Assay type: in vivo

Row | Substance | TMV response / effectiveness against TMV infection (summary of Table 22)
1 | QAGPQSANKTGNVDDANNQDPMQALMQLL (P14-dc4) | reduced effectiveness against TMV infection
2 | SQGISEKQLDQDLSQLIQALLQP (P4-14S-12D) | produced the best results
3 | SQGISEKQLDQLLSQLIQASLQP (P4-14S-20S) | weaker TMV responses
4 | SQGISEKQLDQLLSQAIQALLQP (P4-14S-16A) | weaker TMV responses

Same assay, conditions: spray 5.0 ug/ml, TMV 3 days post-treatment, scored 3 days after inoculation

Row | Substance | Effectiveness Covered (%) (decline in TMV lesions vs UTC, systemic response) | Effectiveness Uncovered (%) (decline in TMV lesions vs UTC, local response)
5 | SQGISEKQLDQDLSQLIQALLQP (P4-14S-12D) | 60* % | 61* %

Same assay, conditions: spray 10 ug/ml, TMV 3 days post-treatment, scored 3 days after inoculation

Row | Substance | Effectiveness Covered (%) (decline in TMV lesions vs UTC, systemic response) | Effectiveness Uncovered (%) (decline in TMV lesions vs UTC, local response)
6 | SEEELQQLLKLFSEIL (P3-5) | 94* % | 66%
7 | QAGPQSANKTGNVDDANNQDPMQALMQLL (P14-dc4) | 19% | 34%
8 | SQGISEKQLDQLLSQSIQALLQP (P4-14S-16S) | 46% | 72* %
9 | SQGISEKQLDQLQSQLIQALLQP (P4-14S-13Q) | 61* % | 40%
10 | SQGISEKQLDQLLSQLIQASLQP (P4-14S-20S) | −45% | 59* %
11 | SQGISEKQLDQLLSQAIQALLQP (P4-14S-16A) | 3% | 1%
12 | SQGISEKQLDQLLSQLI_ALLQP (SQGISEKQLDQLLSQLIALLQP; P4-d18) | 15% | 65%

Same assay, conditions: spray 20 ug/ml, TMV 3 days post-treatment, scored 3 days after inoculation

Row | Substance | Effectiveness Covered (%) (decline in TMV lesions vs UTC, systemic response) | Effectiveness Uncovered (%) (decline in TMV lesions vs UTC, local response)
13 | SEEEEELEQLLEDLVKLL (P14-32) | 82* % | 90* %
14 | QAGPQSANKTGNVDDANNQDPLQALEQLLEDLV (P14-22L,26E) | 91* % | 70* %
15 | QAGPQSANKTGNVDDANNQDPEQALEQLLEDLV (P14-22E,26E) | 62% | 74* %
16 | SEEEEEEEIAKLIS_LIESLL (SEEEEEEEIAKLISLIESLL; P15-61) | 7% | 55* %
17 | PSPFTQMLMHIVGEDLQAQN (P6a-15D) | 74* % | 74* %
18 | SEEEEEALEQLLEDLVKLL (P14-31) | 87* % | 85* %

What follows are substances tested on soybean seeds (assay: Root & shoot growth analysis after seed soak, soy). Conditions: seed soak.
Assay type: in vivo
Protocol: Peptides were tested for biological effects on the allocation of growth resources to the shoot (above ground) and root (below ground). Peptides were dissolved at 0.2, 2, or 5 μg/ml in a total volume of 100 ml deionized water. Corn or soybean seeds were then soaked for one hour in the peptide solution. Untreated control (UTC) plants were soaked in deionized water. Clear plastic 300 ml beverage cups (Solo®, Dart Container Corporation) were prepared for planting by marking the bottom with a cross, dividing the bottom into four equal quadrants. The cups were then filled with Sunshine Mix #1 soil (SunGro Horticulture) sieved to ¼″. 100 ml of water was added to the soil. Treated seeds were then planted by pressing the seed lightly into the top of the soil. The seeds were then covered with an additional 50 ml of loose soil. Seeds were allowed to germinate and grow for 12-14 days.
The length of the shoot was measured as the distance from the soil to the lightly stretched tip of the highest leaf for each plant. […] Stunting was defined as lacking a fully expanded true leaf at time of data collection or having an expanded true leaf judged by eye to be <½ the average leaf area of the treatment group. Generally, 30 seeds were planted per treatment group and 15-25 plants were used for data collection.
Root growth was estimated by counting the number of times that a primary root crosses the quadrant marks on the bottom of the cup. These were often observed along the bottom circumference of the cup, although some were visible along the side of the container and were counted as if crossing a vertical extension of the quadrant line. This number was divided by 4 to produce a root growth index.
Each number indicates the percentage increase over the untreated control values.

Row | Substance | root growth (text summary of Table 20)
19 | QAGPQSANKTGNVDDANNQDPMQALMQLLEDLV (P14) | Increased root growth
20 | ANNQDPMQALMQLLEDLV (P14a) | Increased root growth

Same assay, conditions: seed soak; listed as P4-14s-16s

Row | Substance | root growth (text summary of Table 20)
21 | SQGISEKQLDQLLSQSIQALLQP (P4-14S-16S) | strong shift in resource allocation to root growth

Same assay, conditions: seed soak; listed as p4-14s-16s

Row | Substance | root growth (text summary of Table 20)
22 | SQGISEKQLDQLLSQSIQALLQP (P4-14S-16S) | Increased root growth

Same assay, conditions: seed soak; p14a soy at 0.2 μg/ml

Row | Substance | shoot growth (Table 20)
23 | SQGISEKQLDQLLSQLIQASLQP (P4-14S-20S) | increased shoot growth
24 | ANNQDPMQALMQLLEDLV (P14a) | increased shoot growth

Same assay, conditions: soy, seed soak 0.2 μg/ml, 12-14 days

Row | Substance | Root (root growth index, percentage increase over untreated control) [%] | Shoot (shoot length, percentage increase over untreated control)
25 | SQGISEKQLDQLLSQSIQALLQP (P4-14S-16S) | 28.3 | −2.0%
26 | ANNQDPMQALMQLLEDLV (P14a) | −2.7 | 8.7%*

Same assay, conditions: soy, seed soak 2.0 μg/ml, 12-14 days

Row | Substance | Root (root growth index, percentage increase over untreated control) [%*] | Shoot (shoot length, percentage increase over untreated control) [%]
27 | SQGISEKQLDQLLSQSIQALLQP (P4-14S-16S) | 28.3 | −11.3

Same assay, conditions: soy, seed soak 5.0 μg/ml, 12-14 days

Row | Substance | Root (root growth index, percentage increase over untreated control) | Shoot (shoot length, percentage increase over untreated control)
28 | QAGPQSANKTGNVDDANNQDPMQALMQLLEDLV (P14) | 24.9%* | 4.4%
29 | SQGISEKQLDQLLSQLIQASLQP (P4-14S-20S) | 2.2% | 5.8%*
30 | ANNQDPMQALMQLLEDLV (P14a) | 10.3%* | −3.5%

What follows are substances tested on tobacco plants (leaf tissue discs) (assay: Peroxide response, ferric-xylenol orange assay on tobacco leaf discs). Conditions: 0.5 ug/ml peptide, one hour, absorbance at 595 nm vs blank.
Assay type: cell-based
Protocol: The ferric-xylenol orange complex assay for hydrogen peroxide (Gay et al., Analytical Biochemistry 273:149-55 (1999), which is hereby incorporated by reference in its entirety) was used to determine peroxide production by plant leaf tissue. Briefly, reagent A was prepared by mixing 10 mg of ferrous ammonium sulfate with 133 uL of sulfuric acid in a total volume of 1 mL with water. Reagent B was prepared by mixing 2 g of sorbitol with 9.34 mg of xylenol orange in 80 ml of water. 1M hydrochloric acid was slowly added until the solution turned yellow. The solution was then diluted with water to a total volume of 100 mL, and stored in a dark bottle at 4° C.
Leaves from either tobacco plants (plants grown to 6 true leaves) or soy plants (plants grown to 6 true leaves) were used for the assay. The leaf was first removed from the plant and placed on a paper towel. 0.5 cm leaf tissue circles were then removed from the leaf using a leather punch tool. These discs were then placed into the wells of a 96-well plate. […] of water was added to each disc. The plate was covered with parafilm and rested for 12 hours in the dark. The excess water was then removed and the wells washed with an additional 250 uL of water. The washes were then removed from the wells and replaced with 105 uL of a 0.5 ug/ml solution of peptide in water or water blank, generally in quadruplicate. Where peptide solubility was a problem, pH buffer was added to both the blank and peptide samples. Leaf discs were incubated with the peptides for one hour under fluorescent lighting. 50 ul of the solution from each leaf sample was removed to a new well for chemical analysis.
Just prior to analysis, reagents A and B were freshly mixed in a 1:100 ratio to produce the assay reagent. 200 ul of this mixture was added to each well containing 50 ul of leaf-treated solution. The plate was incubated in the dark for 20 minutes and the absorbance at 595 nm was detected. Results were analyzed using a two-tailed Student's T-test. The results were divided into several response classes. XR++ indicated a positive response with absorbance >0.05 units above the negative control and a Student's T-test p<0.05. XR+ indicated an absorbance <0.05 units above the blank and a Student's T-test p<0.05. XR weak indicated a response >0.02 units above the negative control with a p-value that was not significant. XR− indicated an absorbance within 0.02 units of the negative control. It should be noted that there can be significant biological variability in the peroxide response due to plant age, location of the disc within the leaf, and other factors. As a result, p-values from the T-test are a guide and not an absolute inclusion criterion.

Row | Substance | Peroxide Response, Tobacco
31 | SEEELQQLLKLFSEIL (P3-5) | Weak +
32 | QAGPQSANKTGNVDDANNQDPLQALEQLLEDLV (P14-22L,26E) | Weak+
33 | QAGPQSANKTGNVDDANNQDPMQALMQLLEDLV (P14) | Weak+
34 | QAGPQSANKTGNVDDANNQDPEQALEQLLEDLV (P14-22E,26E) | Weak+
35 | SQGISEKQLDQLFSQLIQALLQP (P4-14S-13F) | Weak+
36 | SQGISEKQLDQLDSQLIQALLQP (P4-14S-13D) | Weak+
37 | SQGISEKQLDQLQSQLIQALLQP (P4-14S-13Q) | Weak+
38 | SQGISEKQSDQLLSQLIQALLQP (P4-14S-9S) | Weak+

Each substance was assayed on Soy plants (assay: Growth tests after foliar spray, soy). Conditions: foliar spray.
Assay type: in vivo
Protocol: Soy seeds (or corn seeds, as indicated) were planted in flats with 2 seeds per cell within the flat at a greenhouse facility. The seeds were allowed to germinate and the smaller plant is culled, leaving one plant per cell. Once the first true leaves are fully expanded and the second leaves are beginning to expand, the plants were initially measured for height. This was performed by stretching the highest leaf upward and measuring the distance to the soil. Peptides were dissolved in water at the indicated concentrations (Table 21 below). The plants were then treated with a foliar spray using widely available spray bottles until liquid was dripping from the leaves. Six flats of 14 plants each were treated per condition (peptide or control). Designated untreated control plants were sprayed with water. The plants were allowed to grow for 14 days. The height of the plants was again measured and compared to the original height to quantify growth. Finally, the plants were harvested by removing the shoots (all above-ground material). For some experiments, this was weighed upon harvesting to determine the fresh mass (including water weight). The shoots were then dried at 70° C. for 72 hours, and again weighed to determine dry biomass. Although this method uses a similar measure (growth) as in Example 3 above, the treatment method is different (seed soak vs. foliar spray). As a result, the experimental outcomes may diverge.

Row | Substance | growth, dry biomass and fresh mass (text summary of Table 21)
39 | SEEEEELEQLLEDLVKLL (P14-32) | increases in growth and dry biomass
40 | QAGPQSANKTGNVDDANNQDPMQALMQLLEDLV (P14) | increases in growth and dry biomass
41 | QAGPQSANKTGNVDDANNQDPMQALMQLL (P14-dc4) | lose the significant growth, dry biomass, and fresh mass benefits
42 | ANNQDPMQALMQLLEDLV (P14a) | increases for all 3 measures

Same assay, conditions: foliar spray; listed as p14a

Row | Substance | growth, dry biomass and fresh mass (text summary of Table 21)
43 | ANNQDPMQALMQLLEDLV (P14a) | increases in growth and dry biomass

Same assay, conditions: soy, foliar spray 0.2 ug/ml, 14 days

Row | Substance | Dry biomass increase (%) | Fresh mass increase (%) | Growth increase (%)
44 | SEEEEELEQLLEDLVKLL (P14-32) | 6.8 | 2.9 | 9.5
45 | QAGPQSANKTGNVDDANNQDPMQALMQLL (P14-dc4) | 5.6 | 7.5 | 2.6
46 | ANNQDPMQALMQLLEDLV (P14a) | 12.6 | 46.8 | 14.7

Same assay, conditions: soy, foliar spray 2.0 ug/ml, 14 days

Row | Substance | Dry biomass increase (%) | Fresh mass increase (%) | Growth increase (%)
47 | SEEEEELEQLLEDLVKLL (P14-32) | 8.2 | 27.6 | 1.7
48 | QAGPQSANKTGNVDDANNQDPMQALMQLLEDLV (P14) | 1.6 | – | 25.8
49 | QAGPQSANKTGNVDDANNQDPMQALMQLL (P14-dc4) | −1.6 | 0.4 | −4.6
50 | ANNQDPMQALMQLLEDLV (P14a) | 11.0 | 57.9 | 3.4

Same assay, conditions: soy, foliar spray 5.0 ug/ml, 14 days

Row | Substance | Dry biomass increase (%) | Fresh mass increase (%) | Growth increase (%)
51 | SEEEEELEQLLEDLVKLL (P14-32) | 14 | 33.3 | 12.5
52 | QAGPQSANKTGNVDDANNQDPMQALMQLLEDLV (P14) | 3 | – | 31.4
53 | QAGPQSANKTGNVDDANNQDPMQALMQLL (P14-dc4) | −7.6 | −15.4 | −17
54 | SQGISEKQLDQDLSQLIQALLQP (P4-14S-12D) | −3.6 | – | −4.2
55 | ANNQDPMQALMQLLEDLV (P14a) | 10.6 | 83.3 | 8.9
